Legend:
KAI3 (IL-2 2.5 ng/mL) [1] = assay: drug sensitivity score (DSS) (DSS units); higher = more sensitive; extreme values may be limits of the assay; conditions: 72 h
[2] = system: normal primary NK cells, pool 1 (3 donors), resting (IL-2 0 ng/mL); assay: as above; conditions: 72 h
[3] = system: normal primary NK cells, pool 1 (3 donors) (IL-2 2.5 ng/mL); assay: as above; conditions: 72 h
[4] = system: normal primary NK cells, pool 2 (3 donors) (IL-2 2.5 ng/mL); assay: as above; conditions: 72 h
IMC-1 (IL-2 20 ng/mL) [5] = assay: as above; conditions: 72 h
[6] = system: normal primary NK cells, pool 3 (3 donors) (IL-2 2.5 ng/mL); assay: as above; conditions: 72 h
NK-YS (IL-2 2.5 ng/mL) [7] = assay: as above; conditions: 72 h
YT (IL-2 2.5 ng/mL) [8] = assay: as above; conditions: 72 h
NK-92 (IL-2 2.5 ng/mL) [9] = assay: as above; conditions: 72 h
KHYG-1 (IL-2 2.5 ng/mL) [10] = assay: as above; conditions: 72 h
NKL (IL-2 2.5 ng/mL) [11] = assay: as above; conditions: 72 h
DERL-7 (IL-2 2.5 ng/mL) [12] = assay: as above; conditions: 72 h
SNK-6 (IL-2 2.5 ng/mL) [13] = assay: as above; conditions: 72 h
[14] = system: normal NK cells expanded with K562-aAPC; assay: as above; conditions: 72 h; IL-2 2.5 ng/mL
Description: (§1)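 Drug sensitivity and resistance testing on K562-aAPC-expanded normal NK cells: 5 concentrations (10-fold steps over a 10,000-fold range), 72 h at 37 °C, viability by CellTiter-Glo normalised to DMSO and benzethonium chloride controls; DSS from the fitted curve.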

KAI3 (IL-2 2.5 ng/mL) [15] = assay: percent inhibition of viability; higher = more inhibition; conditions: 72 h
[16] = system: normal primary NK cells, pool 1 (3 donors), resting (IL-2 0 ng/mL); assay: as above; conditions: 72 h
[17] = system: normal primary NK cells, pool 1 (3 donors) (IL-2 2.5 ng/mL); assay: as above; conditions: 72 h
[18] = system: normal primary NK cells, pool 2 (3 donors) (IL-2 2.5 ng/mL); assay: as above; conditions: 72 h
IMC-1 (IL-2 20 ng/mL) [19] = assay: as above; conditions: 72 h
[20] = system: normal primary NK cells, pool 3 (3 donors) (IL-2 2.5 ng/mL); assay: as above; conditions: 72 h
NK-YS (IL-2 2.5 ng/mL) [21] = assay: as above; conditions: 72 h
YT (IL-2 2.5 ng/mL) [22] = assay: as above; conditions: 72 h
NK-92 (IL-2 2.5 ng/mL) [23] = assay: as above; conditions: 72 h
KHYG-1 (IL-2 2.5 ng/mL) [24] = assay: as above; conditions: 72 h
NKL (IL-2 2.5 ng/mL) [25] = assay: as above; conditions: 72 h
DERL-7 (IL-2 2.5 ng/mL) [26] = assay: as above; conditions: 72 h
SNK-6 (IL-2 2.5 ng/mL) [27] = assay: as above; conditions: 72 h
[28] = system: normal NK cells expanded with K562-aAPC; assay: as above; conditions: 72 h, IL-2 2.5 ng/mL
Description: as §1

CCCCC(=O)OCC(=O)[C@]1(O)Cc2c(O)c3c(c(O)c2[C@@H](O[C@H]2C[C@H](NC(=O)C(F)(F)F)[C@H](O)[C@H](C)O2)C1)C(=O)c1c(OC)cccc1C3=O [Valrubicin] (max concentration tested 5000 nM)
Conditions | drug sensitivity score
DERL-7 (IL-2 2.5 ng/mL) [12] | 22.9
IMC-1 (IL-2 20 ng/mL) [5] | 20.7
KAI3 (IL-2 2.5 ng/mL) [1] | 17.4
KHYG-1 (IL-2 2.5 ng/mL) [10] | 17.5
NK-92 (IL-2 2.5 ng/mL) [9] | 17.7
NK-YS (IL-2 2.5 ng/mL) [7] | 21
NKL (IL-2 2.5 ng/mL) [11] | 35.2
SNK-6 (IL-2 2.5 ng/mL) [13] | 18.6
YT (IL-2 2.5 ng/mL) [8] | 15.8
[2] | 16.1
[3] | 14.7
[4] | 14.2
[6] | 12.3
[14] | 12.2

percent inhibition of viability [%]
Conditions | 0.5 nM | 5 nM | 50 nM | 500 nM | 5000 nM
DERL-7 (IL-2 2.5 ng/mL) [26] | 1.97 | -4.8 | 35.6 | 99.1 | 101
IMC-1 (IL-2 20 ng/mL) [19] | -8.69 | 1.1 | 16.2 | 99.5 | 101
KAI3 (IL-2 2.5 ng/mL) [15] | -21.3 | -1.05 | 42.1 | 62.3 | 85.2
KHYG-1 (IL-2 2.5 ng/mL) [24] | -6.36 | 1.91 | 9.03 | 89.6 | 109
NK-92 (IL-2 2.5 ng/mL) [23] | -14.1 | -10.7 | 10 | 89.7 | 105
NK-YS (IL-2 2.5 ng/mL) [21] | -5.71 | 4.57 | 40.3 | 86.6 | 101
NKL (IL-2 2.5 ng/mL) [25] | -11.4 | 33.3 | 101 | 105 | 109
SNK-6 (IL-2 2.5 ng/mL) [27] | 10.3 | 28.7 | 23 | 89.2 | 86
YT (IL-2 2.5 ng/mL) [22] | -0.05 | 4.95 | 0.64 | 87.1 | 109
[16] | -3.66 | -27.1 | -0.41 | 88.2 | 92.3
[17] | 2.9 | -5.69 | 4.41 | 76 | 97.4
[18] | -13.8 | -9.19 | 12.8 | 67.3 | 95.2
[20] | -11.9 | -6.83 | 15.7 | 53.2 | 98.4
[28] | -4.09 | -1.21 | 4.69 | 55.8 | 101

Cc1ccc(NC(=O)c2ccc(CN3CCN(C)CC3)cc2)cc1Nc1nc(-c2cccnc2)cs1 [Masitinib] (max concentration tested 10000 nM)
Conditions | drug sensitivity score
DERL-7 (IL-2 2.5 ng/mL) [12] | 7.97
IMC-1 (IL-2 20 ng/mL) [5] | 5.34
KAI3 (IL-2 2.5 ng/mL) [1] | 5.72
KHYG-1 (IL-2 2.5 ng/mL) [10] | 6.29
NK-92 (IL-2 2.5 ng/mL) [9] | 4.64
NK-YS (IL-2 2.5 ng/mL) [7] | 7.84
NKL (IL-2 2.5 ng/mL) [11] | 5.08
SNK-6 (IL-2 2.5 ng/mL) [13] | 3.3
YT (IL-2 2.5 ng/mL) [8] | 6.67
[2] | 5.07
[3] | 5.41
[4] | 4.61
[6] | 4.72
[14] | 6.42

percent inhibition of viability [%]
Conditions | 1 nM | 10 nM | 100 nM | 1000 nM | 10000 nM
DERL-7 (IL-2 2.5 ng/mL) [26] | -4.46 | 4.7 | -3.25 | 14.7 | 99.9
IMC-1 (IL-2 20 ng/mL) [19] | -6.41 | -3.52 | -8.01 | -3.09 | 100
KAI3 (IL-2 2.5 ng/mL) [15] | 0.17 | 0.29 | -11.5 | 2.65 | 96.5
KHYG-1 (IL-2 2.5 ng/mL) [24] | -4.84 | 3.44 | -1.97 | 5.87 | 97.8
NK-92 (IL-2 2.5 ng/mL) [23] | -1.64 | 6.19 | 1.77 | -11.2 | 96.5
NK-YS (IL-2 2.5 ng/mL) [21] | -1.57 | -2.35 | 1.86 | 14.4 | 98.2
NKL (IL-2 2.5 ng/mL) [25] | -13.2 | -15.1 | -14.2 | -3.8 | 96.7
SNK-6 (IL-2 2.5 ng/mL) [27] | 11 | 9.07 | -33.7 | -49.3 | 86.9
YT (IL-2 2.5 ng/mL) [22] | 0.22 | -0.59 | -2.17 | 8.04 | 97.5
[16] | -13.3 | -12 | 9.4 | -3 | 95.5
[17] | -9.84 | -12.7 | -4.81 | -1.08 | 98.6
[18] | -10.8 | -9.27 | -8.85 | -5.72 | 90.7
[20] | -9.21 | -14.7 | -12.2 | -0.94 | 86.2
[28] | -1.56 | -0.88 | -2.2 | 6.06 | 99.6

CN1CCC(COc2cnc(-c3cccc(Cn4nc(-c5cccc(C#N)c5)ccc4=O)c3)nc2)CC1 (max concentration tested 1000 nM)
Conditions | drug sensitivity score
DERL-7 (IL-2 2.5 ng/mL) [12] | 2.76
IMC-1 (IL-2 20 ng/mL) [5] | 0
KAI3 (IL-2 2.5 ng/mL) [1] | 0
KHYG-1 (IL-2 2.5 ng/mL) [10] | 0.39
NK-92 (IL-2 2.5 ng/mL) [9] | 0
NK-YS (IL-2 2.5 ng/mL) [7] | 0
NKL (IL-2 2.5 ng/mL) [11] | 0.35
SNK-6 (IL-2 2.5 ng/mL) [13] | 1.09
YT (IL-2 2.5 ng/mL) [8] | 0
[2] | 0
[3] | 0
[4] | 0
[6] | 0
[14] | 0

percent inhibition of viability [%]
Conditions | 0.1 nM | 1 nM | 10 nM | 100 nM | 1000 nM
DERL-7 (IL-2 2.5 ng/mL) [26] | -4.25 | -4.18 | 3.15 | 4.81 | 39.5
IMC-1 (IL-2 20 ng/mL) [19] | -6.71 | -2.19 | -0.81 | -1.98 | -3.26
KAI3 (IL-2 2.5 ng/mL) [15] | -0.84 | -8.6 | -8.84 | -7.75 | -3.69
KHYG-1 (IL-2 2.5 ng/mL) [24] | 0.03 | -2.13 | -6.37 | 1.52 | 15.3
NK-92 (IL-2 2.5 ng/mL) [23] | -7.1 | -4.45 | 1.23 | -11.4 | 6.42
NK-YS (IL-2 2.5 ng/mL) [21] | -1.64 | -6.91 | -7.12 | -5.26 | -5.69
NKL (IL-2 2.5 ng/mL) [25] | 4.34 | -14.9 | -8.56 | -9.54 | 20.4
SNK-6 (IL-2 2.5 ng/mL) [27] | 10.8 | 3.77 | -9.85 | 14 | 13.7
YT (IL-2 2.5 ng/mL) [22] | 4 | 0.64 | -1.46 | -0.52 | -0.42
[16] | -5.12 | -27.4 | -19.6 | 3.81 | 3.64
[17] | -7 | -6.88 | -13.8 | 1.64 | 4.06
[18] | -17.1 | 4.11 | -9.87 | -10 | -13.3
[20] | -8.96 | -8.97 | -7.75 | -16 | -13.7
[28] | -4.81 | -10.8 | -1.01 | -5.56 | 4.27
